Measurements taken from ChEMBL document CHEMBL1255492, “Molecular characterization of beta-lactamase genes and their genetic structures in Acinetobacter genospecies 3 isolates in Taiwan” (2010).
Converted amounts (≈) assume the structure as drawn.

What was measured:
Type in all cases: functional
[1] = test system: Acinetobacter pittii; assay: Antibacterial activity against Acinetobacter genomosp. 3 isolates assessed as percent of resistance isolates by broth micro dilution
[2] = test system: Acinetobacter pittii; assay: Antibacterial activity against Acinetobacter genomosp. 3 isolates by broth micro dilution
[3] = test system: Acinetobacter pittii; assay: Antibacterial activity against Pulsotype I Acinetobacter genomosp. 3 isolate 11 containing IMP-1, OXA-58, ADC-18, ISAba1, ISAba3, IS1008, intI1 genetic elements by broth micro dilution
[4] = test system: Acinetobacter pittii; assay: Antibacterial activity against Pulsotype F Acinetobacter genomosp. 3 isolate 4 containing IMP-1, OXA-58, ADC-18, ISAba1, ISAba3, IS18, IS1008, intI1 genetic elements by broth micro dilution
[5] = test system: Acinetobacter pittii; assay: Antibacterial activity against Pulsotype B Acinetobacter genomosp. 3 isolate 8 containing IMP-1, OXA-58, ADC-18, ISAba1, ISAba3, IS1008, intI1 genetic elements by broth micro dilution
[6] = test system: Acinetobacter pittii; assay: Antibacterial activity against Pulsotype D Acinetobacter genomosp. 3 isolate 18 containing IMP-1, OXA-58, ADC-18, ISAba1, ISAba3, repAcil, IS1008, intI1 genetic elements by broth micro dilution
[7] = test system: Acinetobacter pittii; assay: Antibacterial activity against Pulsotype L Acinetobacter genomosp. 3 isolate 2 containing IMP-8, OXA-58, ADC-43, ISAba1, ISAba3, IS1008, intI1 genetic elements by broth micro dilution
[8] = test system: Acinetobacter pittii; assay: Antibacterial activity against Pulsotype J Acinetobacter genomosp. 3 isolate 15 containing IMP-1, OXA-58, ADC-18, ISAba1, ISAba3, IS1008, intI1 genetic elements by broth micro dilution
[9] = test system: Acinetobacter pittii; assay: Antibacterial activity against Pulsotype I Acinetobacter genomosp. 3 isolate 10 containing IMP-1, OXA-58, ADC-18, ISAba1, ISAba3, IS1008, intI1 genetic elements by broth micro dilution
[10] = test system: Acinetobacter pittii; assay: Antibacterial activity against Pulsotype C Acinetobacter genomosp. 3 isolate 1 containing IMP-1, OXA-58, ADC-18, ISAba1, ISAba3, IS1008, intI1 genetic elements by broth micro dilution
[11] = test system: Acinetobacter pittii; assay: Antibacterial activity against Pulsotype L Acinetobacter genomosp. 3 isolate 7 containing IMP-1, OXA-58, ADC-18, ISAba1, ISAba3, IS1008, intI1 genetic elements by broth micro dilution
[12] = test system: Acinetobacter pittii; assay: Antibacterial activity against Pulsotype K Acinetobacter genomosp. 3 isolate 6 containing IMP-1, OXA-58, ADC-18, ISAba1, ISAba3, IS1008, intI1 genetic elements by broth micro dilution
[13] = test system: Acinetobacter pittii; assay: Antibacterial activity against Pulsotype M Acinetobacter genomosp. 3 isolate 5 containing IMP-1, OXA-58, ADC-43, ISAba2, ISAba3, IS1008, intI1 genetic elements by broth micro dilution
[14] = test system: Acinetobacter pittii; assay: Antibacterial activity against Pulsotype L Acinetobacter genomosp. 3 isolate 7 containing IMP-1, OXA-58, ADC-18, ISAba1, ISAba3, IS1008, intI1 genetic elements by agar dilution method
[15] = test system: Acinetobacter pittii; assay: Antibacterial activity against Pulsotype M Acinetobacter genomosp. 3 isolate 5 containing IMP-1, OXA-58, ADC-43, ISAba2, ISAba3, IS1008, intI1 genetic elements by agar dilution method
[16] = test system: Acinetobacter pittii; assay: Antibacterial activity against Pulsotype D Acinetobacter genomosp. 3 isolate 18 containing IMP-1, OXA-58, ADC-18, ISAba1, ISAba3, repAcil, IS1008, intI1 genetic elements by agar dilution method
[17] = test system: Acinetobacter pittii; assay: Antibacterial activity against Pulsotype C Acinetobacter genomosp. 3 isolate 1 containing IMP-1, OXA-58, ADC-18, ISAba1, ISAba3, IS1008, intI1 genetic elements by agar dilution method
[18] = test system: Acinetobacter pittii; assay: Antibacterial activity against Pulsotype B Acinetobacter genomosp. 3 isolate 8 containing IMP-1, OXA-58, ADC-18, ISAba1, ISAba3, IS1008, intI1 genetic elements by agar dilution method
[19] = test system: Acinetobacter pittii; assay: Antibacterial activity against Pulsotype I Acinetobacter genomosp. 3 isolate 10 containing IMP-1, OXA-58, ADC-18, ISAba1, ISAba3, IS1008, intI1 genetic elements by agar dilution method
[20] = test system: Acinetobacter pittii; assay: Antibacterial activity against Pulsotype I Acinetobacter genomosp. 3 isolate 11 containing IMP-1, OXA-58, ADC-18, ISAba1, ISAba3, IS1008, intI1 genetic elements by agar dilution method
[21] = test system: Acinetobacter pittii; assay: Antibacterial activity against Acinetobacter genomosp. 3 isolates assessed as percent of resistance isolates by agar dilution method
[22] = test system: Acinetobacter pittii; assay: Antibacterial activity against Acinetobacter genomosp. 3 isolates by agar dilution method
[23] = test system: Acinetobacter pittii; assay: Antibacterial activity against Pulsotype F Acinetobacter genomosp. 3 isolate 4 containing IMP-1, OXA-58, ADC-18, ISAba1, ISAba3, IS18, IS1008, intI1 genetic elements by agar dilution method
[24] = test system: Acinetobacter pittii; assay: Antibacterial activity against Pulsotype J Acinetobacter genomosp. 3 isolate 15 containing IMP-1, OXA-58, ADC-18, ISAba1, ISAba3, IS1008, intI1 genetic elements by agar dilution method
[25] = test system: Acinetobacter pittii; assay: Antibacterial activity against Pulsotype L Acinetobacter genomosp. 3 isolate 2 containing IMP-8, OXA-58, ADC-43, ISAba1, ISAba3, IS1008, intI1 genetic elements by agar dilution method
[26] = test system: Acinetobacter pittii; assay: Antibacterial activity against Pulsotype K Acinetobacter genomosp. 3 isolate 6 containing IMP-1, OXA-58, ADC-18, ISAba1, ISAba3, IS1008, intI1 genetic elements by agar dilution method
[27] = test system: Enterobacteriaceae; assay: Antibacterial activity against Enterobacteriaceae assessed as intermediate breakpoint by CLSI method
[28] = test system: Enterobacteriaceae; assay: Antibacterial activity against Enterobacteriaceae assessed as resistant breakpoint by CLSI method
[29] = test system: Enterobacteriaceae; assay: Antibacterial activity against Enterobacteriaceae assessed as susceptibility breakpoint by CLSI method

Molecule | Activity [1] [%] | MIC50 [2] [µg/mL] | MIC90 [2] [µg/mL] | MIC [3] [µg/mL] | MIC [4] [µg/mL] | MIC [5] [µg/mL] | MIC [6] [µg/mL] | MIC [7] [µg/mL] | MIC [8] [µg/mL] | MIC [9] [µg/mL] | MIC [10] [µg/mL] | MIC [11] [µg/mL] | MIC [12] [µg/mL] | MIC [13] [µg/mL] | further results
NCC[C@H](O)C(=O)N[C@@H]1C[C@H](N)[C@@H](O[C@H]2O[C@H](CN)[C@@H](O)[C@H](O)[C@H]2O)[C@H](O)[C@H]1O[C@H]1O[C@H](CO)[C@@H](O)[C@H](N)[C@H]1O [AMIKACIN] | 52.6 | 32 (≈ 54.6 µM) | ≥ 64 |  |  |  |  |  |  |  |  |  |  |  | 
C[C@H]1[C@H](NC(=O)/C(=N\OC(C)(C)C(=O)O)c2csc(N)n2)C(=O)N1S(=O)(=O)O [AZTREONAM] | 94.7 | ≥ 32 | ≥ 32 | > 16 | > 16 | > 16 | > 16 | > 16 | > 16 | > 16 | > 16 | > 16 | > 16 | > 16 | 
CO/N=C(\C(=O)N[C@@H]1C(=O)N2C(C(=O)[O-])=C(C[N+]3(C)CCCC3)CS[C@H]12)c1csc(N)n1 [CEFEPIME] | 63.2 | ≥ 32 | ≥ 32 | > 16 | > 16 | > 16 | > 16 | > 16 | > 16 | > 16 | > 16 | > 16 | > 16 | > 16 | 
CC(C)(O/N=C(\C(=O)N[C@@H]1C(=O)N2C(C(=O)[O-])=C(C[n+]3ccccc3)CS[C@H]12)c1csc(N)n1)C(=O)O [CEFTAZIDIME] | 68.4 | ≥ 64 | ≥ 64 | > 32 | > 32 | > 32 | > 32 | > 32 | > 32 | > 32 | > 32 | > 32 | > 32 | > 32 | 
CO/N=C(\C(=O)N[C@@H]1C(=O)N2C(C(=O)O)=C(CSc3nc(=O)c(O)nn3C)CS[C@H]12)c1csc(N)n1 [CEFTRIAXONE] | 63.2 | ≥ 64 | ≥ 64 | > 32 | > 32 | > 32 | > 32 | > 32 | > 32 | > 32 | > 32 | > 32 | > 32 | > 32 | 
O=C(O)c1cn(C2CC2)c2cc(N3CCNCC3)c(F)cc2c1=O [CIPROFLOXACIN] | 5.3 | 0.25 (≈ 0.754 µM) | 2 (≈ 6.04 µM) |  |  |  |  |  |  |  |  |  |  |  | 
C[C@@H](O)[C@H]1C(=O)N2C(C(=O)O)=C(SCCNC=N)C[C@H]12 [IMIPENEM ANHYDROUS] | 57.9 | 16 (≈ 53.4 µM) | 32 (≈ 107 µM) | 32 (≈ 107 µM) | 64 (≈ 214 µM) | 32 (≈ 107 µM) | 32 (≈ 107 µM) | 32 (≈ 107 µM) | 16 (≈ 53.4 µM) | 32 (≈ 107 µM) | 32 (≈ 107 µM) | 32 (≈ 107 µM) | 16 (≈ 53.4 µM) | 16 (≈ 53.4 µM) | 
C[C@@H](O)[C@H]1C(=O)N2C(C(=O)O)=C(S[C@@H]3CN[C@H](C(=O)N(C)C)C3)[C@H](C)[C@H]12 [MEROPENEM] | 57.9 | 16 (≈ 41.7 µM) | 32 (≈ 83.4 µM) | 16 (≈ 41.7 µM) | 64 (≈ 167 µM) | 16 (≈ 41.7 µM) | 32 (≈ 83.4 µM) | 16 (≈ 41.7 µM) | 32 (≈ 83.4 µM) | 32 (≈ 83.4 µM) | 16 (≈ 41.7 µM) | 16 (≈ 41.7 µM) | 32 (≈ 83.4 µM) | 16 (≈ 41.7 µM) | 
CCN1CCN(C(=O)N[C@@H](C(=O)N[C@@H]2C(=O)N3[C@@H]2SC(C)(C)[C@@H]3C(=O)O)c2ccccc2)C(=O)C1=O [PIPERACILLIN] | 63.2 | ≥ 128 | ≥ 128 | > 64 | > 64 | > 64 | 32 (≈ 61.8 µM) | > 64 | > 64 | > 64 | > 64 | > 64 | > 64 | > 64 | 
CC1(C)[C@H](C(=O)O)N2C(=O)C[C@H]2S1(=O)=O [SULBACTAM] |  |  |  |  |  |  |  |  |  |  |  |  |  |  | MIC [14]: 4 µg/mL (≈ 17.1 µM); MIC [15]: 2 µg/mL (≈ 8.57 µM); MIC [16]: 4 µg/mL (≈ 17.1 µM); MIC [17]: 4 µg/mL (≈ 17.1 µM); MIC [18]: 2 µg/mL (≈ 8.57 µM); MIC [19]: 4 µg/mL (≈ 17.1 µM); MIC [20]: 4 µg/mL (≈ 17.1 µM); Activity [21]: 0%; MIC50 [22]: 2 µg/mL (≈ 8.57 µM); MIC90 [22]: 4 µg/mL (≈ 17.1 µM); MIC [23]: 2 µg/mL (≈ 8.57 µM); MIC [24]: 4 µg/mL (≈ 17.1 µM); MIC [25]: 4 µg/mL (≈ 17.1 µM); MIC [26]: 4 µg/mL (≈ 17.1 µM)
CN(C)c1cc(NC(=O)CNC(C)(C)C)c(O)c2c1C[C@H]1C[C@H]3[C@H](N(C)C)C(O)=C(C(N)=O)C(=O)[C@@]3(O)C(O)=C1C2=O [TIGECYCLINE] | 0 | 0.12 (≈ 0.205 µM) | 0.5 (≈ 0.854 µM) |  |  |  |  |  |  |  |  |  |  |  | Activity [27]: 4 µg/mL; Activity [28]: >=8 ug ml-1; Activity [29]: <=2 ug ml-1
NC[C@H]1O[C@H](O[C@H]2[C@H](O)[C@@H](O[C@H]3O[C@H](CO)[C@@H](O)[C@H](N)[C@H]3O)[C@H](N)C[C@@H]2N)[C@H](N)C[C@@H]1O [TOBRAMYCIN] | 42.1 | 8 (≈ 17.1 µM) | ≥ 16 |  |  |  |  |  |  |  |  |  |  |  | 
COLISTIN | 0 | 1 | 2 |  |  |  |  |  |  |  |  |  |  |  | 
GENTAMICIN | 52.6 | 8 | > 16 |  |  |  |  |  |  |  |  |  |  |  | 
